The test system of this assay is p16-INK4A (p16). The assay is described as follows: p16 expression in H2O2-treated TIG-3 cells (cellular senescence marker, real-time PCR). In kind it is cell-based, human. As to the method:
TIG-3 cells (human lung fibroblasts) were used to measure the expression level of p16-INK4A (p16) in the cells. Eagle's minimum essential medium supplemented with 10% fetal bovine serum was used in each of Examples 1 and 2, Reference Example 1, and Comparative Examples 1 to 4. A H2O2 (200 μM)-supplemented medium used for H2O2 treatment was prepared by adding H2O2 to the medium described above. The H2O2 (200 μM)-supplemented medium is free of sesamin-class compounds and ergothioneine.
In Examples 1 and 2, in order to investigate the action on cellular senescence, the cells were cultured in a medium containing sesamin-class compounds and ergothioneine and were then treated with the H2O2-supplemented medium. […]
Specifically, TIG-3 cells at 4.0×10^4 cells/well were seeded onto 6-well plates and cultured at 37° C. with CO2 (5%) for 24 hours in a medium supplemented with a sesamin-episesamin mixture (SE) and ergothioneine at the respective concentrations shown in the following Table 1. […] The resulting pellets were dissolved in 20 μL DNase RNase free water (Invitrogen) and measured by NanoDrop. […] A master mix (15 μL) (Takara, TB Green® Premix Ex Taq™ II (Tli RNaseH Plus)) was mixed with the cDNA sample (5 μL), and p16 was measured with a Real-Time PCR system (Applied Biosystems, StepOnePlus-01). An average p16 expression level (n=6) was determined. […]
For orientation: In qPCR the cycle at which signal appears reflects the starting amount.

Consider one compound from patent US20240408052A1, “COMPOSITION CONTAINING SESAMIN AND ERGOTHIONEINE OR SALT THEREOF” (SUNTORY HOLDINGS LIMITED, priority 2021, published 2024).

As for `C[N+](C)(C)[C@@H](Cc1c[nH]c(=S)[nH]1)C(=O)[O-]` [ergothioneine, L-ergothioneine], the “p16 expression level compared to the H2O2-treated group (Comparative Example 1)” value (FIG. 1, ergothioneine 0.1 μM, 200 μM H2O2 two hours, then six days culture, n=6) is given as “no significant change”. In addition, the “p16 expression compared to the H2O2-treated group (Comparative Example 1)” value (FIG. 2, ergothioneine 10 μM, 200 μM H2O2, p<0.05) is “significantly suppressed”.
